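96-well plates; 48 h exposure; 5 concentrations. Endpoints by linear interpolation between flanking doses. Not reached: highest tested concentration assigned. TGI is the concentration that stops growth completely.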
What was measured:
Test in all cases: growth of human tumour cells (NCI), 48 h
[1] = tested on: 786-0 renal
[2] = tested on: A498 renal
[3] = tested on: A549 NSCLC
[4] = tested on: ACHN renal
[5] = tested on: CCRF-CEM leukemia
[6] = tested on: COLO 205 colon
[7] = tested on: DLD-1 colon
[8] = tested on: DMS 114 small cell lung
[9] = tested on: DMS 273 small cell lung
[10] = tested on: EKVX NSCLC
[11] = tested on: HCC-2998 colon
[12] = tested on: HCT-116 colon
[13] = tested on: HCT-15 colon
[14] = tested on: HL-60(TB) leukemia
[15] = tested on: HOP-18 NSCLC
[16] = tested on: HOP-62 NSCLC
[17] = tested on: HOP-92 NSCLC
[18] = tested on: IGROV1 ovarian
[19] = tested on: K-562 leukemia
[20] = tested on: KM12 colon
[21] = tested on: KM20L2 colon
[22] = tested on: LOX IMVI melanoma
[23] = tested on: LXFL 529 NSCLC
[24] = tested on: M14 melanoma
[25] = tested on: MALME-3M melanoma
[26] = tested on: MOLT-4 leukemia
[27] = tested on: NCI-H23 lung
[28] = tested on: NCI-H460 lung
[29] = tested on: NCI-H522 lung
[30] = tested on: OVCAR-3 ovarian
[31] = tested on: OVCAR-4 ovarian
[32] = tested on: OVCAR-5 ovarian
[33] = tested on: OVCAR-8 ovarian
[34] = tested on: RPMI-8226 leukemia
[35] = tested on: RXF 393 renal
[36] = tested on: SF-268 CNS
[37] = tested on: SF-295 CNS
[38] = tested on: SF-539 CNS
[39] = tested on: SK-MEL-2 melanoma
[40] = tested on: SK-MEL-28 melanoma
[41] = tested on: SK-MEL-5 melanoma
[42] = tested on: SK-OV-3 ovarian
[43] = tested on: SN12C renal
[44] = tested on: SNB-19 CNS
[45] = tested on: SNB-75 CNS
[46] = tested on: SNB-78 CNS
[47] = tested on: SW-620 colon
[48] = tested on: TK-10 renal
[49] = tested on: U251 CNS
[50] = tested on: UACC-257 melanoma
[51] = tested on: UACC-62 melanoma
[52] = tested on: UO-31 renal
[53] = tested on: CAKI-1 renal
[54] = tested on: HT29 colon
[55] = tested on: M19-MEL melanoma
[56] = tested on: NCI-H226 lung
[57] = tested on: BT-549 breast
[58] = tested on: DU-145 prostate
[59] = tested on: HS 578T breast
[60] = tested on: MCF7 breast
[61] = tested on: MDA-MB-231 breast
[62] = tested on: MDA-MB-435
[63] = tested on: MDA-N
[64] = tested on: NCI/ADR-RES ovarian
[65] = tested on: PC-3 prostate
[66] = tested on: SR leukemia
[67] = tested on: T-47D breast

## CN(C)CCCOc1ccc(/C=C2/CCC/C(=C/c3ccc(OCCCN(C)C)cc3)C2=O)cc1
[1]
  TGI: 2.59 µM
[2]
  TGI: 3.65 µM
[3]
  TGI: 6.28 µM
[4]
  TGI: 4.13 µM
[5]
  TGI: 3.84 µM
[6]
  TGI: 3.2 µM
[7]
  TGI: 3.21 µM
[8]
  TGI: 3.11 µM
[9]
  TGI: 2.96 µM
[10]
  TGI: 6.84 µM
[11]
  TGI: 3.12 µM
[12]
  TGI: 2.76 µM
[13]
  TGI: 2.5 µM
[14]
  TGI: 3.65 µM
[15]
  TGI: 12.3 µM
[16]
  TGI: 4.49 µM
[17]
  TGI: 9.72 µM
[18]
  TGI: 6.78 µM
[19]
  TGI: 1.24 µM
[20]
  TGI: 2.93 µM
[21]
  TGI: 0.537 µM
[22]
  TGI: 3.29 µM
[23]
  TGI: 7.12 µM
[24]
  TGI: 6.07 µM
[25]
  TGI: 3.32 µM
[26]
  TGI: 2.5 µM
[27]
  TGI: 3.63 µM
[28]
  TGI: 4.16 µM
[29]
  TGI: 3.75 µM
[30]
  TGI: 5.56 µM
[31]
  TGI: 7.1 µM
[32]
  TGI: 0.644 µM
[33]
  TGI: 6.5 µM
[34]
  TGI: 3.43 µM
[35]
  TGI: 2.98 µM
[36]
  TGI: 4.84 µM
[37]
  TGI: 3.65 µM
[38]
  TGI: 3.02 µM
[39]
  TGI: 3.69 µM
[40]
  TGI: 4 µM
[41]
  TGI: 3.92 µM
[42]
  TGI: 4.18 µM
[43]
  TGI: 2.96 µM
[44]
  TGI: 4.74 µM
[45]
  TGI: 2.61 µM
[46]
  TGI: 9.06 µM
[47]
  TGI: 3.73 µM
[48]
  TGI: 5.33 µM
[49]
  TGI: 2.13 µM
[50]
  TGI: 3.93 µM
[51]
  TGI: 3.74 µM
[52]
  TGI: 3.34 µM

## O=C1C[C@@H]2[C@@H](CCC23CCCC3)N1
[1]
  TGI: > 100 µM
[2]
  TGI: > 100 µM
[3]
  TGI: > 100 µM
[4]
  TGI: > 100 µM
[53]
  TGI: > 100 µM
[5]
  TGI: > 100 µM
[6]
  TGI: > 100 µM
[7]
  TGI: > 100 µM
[9]
  TGI: > 100 µM
[10]
  TGI: > 100 µM
[11]
  TGI: > 100 µM
[12]
  TGI: > 100 µM
[13]
  TGI: > 100 µM
[14]
  TGI: > 100 µM
[15]
  TGI: > 100 µM
[16]
  TGI: > 100 µM
[54]
  TGI: > 100 µM
[18]
  TGI: > 100 µM
[19]
  TGI: > 100 µM
[20]
  TGI: > 100 µM
[21]
  TGI: > 100 µM
[22]
  TGI: > 100 µM
[23]
  TGI: > 100 µM
[24]
  TGI: > 100 µM
[55]
  TGI: > 100 µM
[25]
  TGI: > 100 µM
[26]
  TGI: > 100 µM
[56]
  TGI: > 100 µM
[27]
  TGI: > 100 µM
[28]
  TGI: > 100 µM
[29]
  TGI: > 100 µM
[30]
  TGI: > 100 µM
[31]
  TGI: > 100 µM
[32]
  TGI: > 100 µM
[33]
  TGI: > 100 µM
[34]
  TGI: > 100 µM
[35]
  TGI: > 100 µM
[36]
  TGI: > 100 µM
[37]
  TGI: > 100 µM
[38]
  TGI: > 100 µM
[39]
  TGI: > 100 µM
[40]
  TGI: > 100 µM
[41]
  TGI: > 100 µM
[42]
  TGI: > 100 µM
[43]
  TGI: > 100 µM
[44]
  TGI: > 100 µM
[45]
  TGI: > 100 µM
[46]
  TGI: > 100 µM
[47]
  TGI: > 100 µM
[48]
  TGI: > 100 µM
[49]
  TGI: > 100 µM
[50]
  TGI: > 100 µM
[51]
  TGI: > 100 µM
[52]
  TGI: > 100 µM

## COc1cccc(C2c3cc4c(cc3OC(NNC(N)=O)C2C)OCO4)c1O (stereo not given)
[1]
  TGI: > 69.3 µM
[2]
  TGI: 42.4 µM
[3]
  TGI: > 39.8 µM
[4]
  TGI: > 44.4 µM
[57]
  TGI: > 100 µM
[53]
  TGI: > 77.9 µM
[5]
  TGI: > 100 µM
[6]
  TGI: 9.05 µM
[58]
  TGI: > 100 µM
[10]
  TGI: > 50.9 µM
[11]
  TGI: 35.4 µM
[12]
  TGI: > 38.9 µM
[13]
  TGI: > 100 µM
[14]
  TGI: 4 µM
[16]
  TGI: 54 µM
[17]
  TGI: 51.8 µM
[59]
  TGI: > 50.8 µM
[54]
  TGI: > 23 µM
[18]
  TGI: > 100 µM
[19]
  TGI: > 100 µM
[20]
  TGI: > 79.2 µM
[22]
  TGI: > 100 µM
[24]
  TGI: 23.6 µM
[25]
  TGI: > 67.7 µM
[60]
  TGI: > 100 µM
[61]
  TGI: > 59.8 µM
[62]
  TGI: 0.523 µM
[63]
  TGI: 0.653 µM
[26]
  TGI: > 100 µM
[56]
  TGI: 9.4 µM
[27]
  TGI: > 100 µM
[28]
  TGI: > 26.4 µM
[29]
  TGI: 10.9 µM
[64]
  TGI: > 100 µM
[30]
  TGI: 29.6 µM
[31]
  TGI: > 100 µM
[32]
  TGI: > 100 µM
[33]
  TGI: > 33.8 µM
[65]
  TGI: > 100 µM
[34]
  TGI: > 100 µM
[35]
  TGI: 34.3 µM
[36]
  TGI: > 72.2 µM
[37]
  TGI: 14 µM
[38]
  TGI: 6.55 µM
[39]
  TGI: 44.2 µM
[40]
  TGI: > 69.6 µM
[41]
  TGI: 8.54 µM
[42]
  TGI: > 100 µM
[43]
  TGI: > 100 µM
[44]
  TGI: > 100 µM
[45]
  TGI: > 69.4 µM
[66]
  TGI: > 19.8 µM
[47]
  TGI: > 100 µM
[67]
  TGI: > 100 µM
[48]
  TGI: > 75.5 µM
[49]
  TGI: 34.3 µM
[50]
  TGI: > 100 µM
[51]
  TGI: > 100 µM
[52]
  TGI: > 75.3 µM

— PubChem BioAssay (NCI)
